US20170143787A1, “CHEMOKINE RECEPTOR ANTAGONIST AND ITS COMBINATIONAL THERAPY” (Pertinax Therapeutics Inc., priority 2014, published 2017)

Columns and labels:
[1] = tested on: rat HCC cell line, CRL-1601; conditions: 12.5 or 25 mg/kg/day s.c. for 4 weeks
From the text: The CXCR4 antagonists used was the short peptide dimer antagonist CTCE-9908 (SEQ ID NO.1). A rat orthotopic hepatocellular carcinoma (HCC) model was established by injection of a rat HCC cell line, CRL-1601, into the left lobe of the liver of Buffalo rats. Since the rat HCC cell line was generated from Buffalo rats, in vivo formed tumor in the Buffalo rats can mimic the clinical setting. […]
The first group (control) received sham operation followed by water for irrigation. […] The dimension of the primary tumour was measured along with liver function. The microvessel density, proliferation index of tumor cells, apoptotic state and morphology of tumour cells in primary tumour and metastases were analysed by immunohistochemistry. […] The number of metastatic tumour loci was analysed. Plasma SDF-1 was analyzed by ELISA. […]
This study examined a rat model of hepatocellular carcinoma (HCC) that mimics transarterial chemoembolization in the clinical setting. […] One week after the last CTCE-9908 treatment, the rats were sacrificed and assessments of the tumor as well as the circulating cells were made by luminescence and flow cytometry, respectively.

[2] = tested on: refractory neoplasms (various solid tumors); assay: open label, dose-finding trial (Accelerated Titration Design) in subjects with refractory neoplasms; format: in vivo, human
Description: According to the study design, the cohort was to be expanded in the case of moderate toxicity to include more subjects and additional dose increments (40%) until the maximum dose of 5 mg/kg or dose limiting toxicity was achieved.
Subjects were dosed daily for 4 consecutive weeks (not including weekends and holidays) and dose limiting toxicity was assessed after subjects have completed their treatment.
Toxicity reported during the study was graded according to the National Cancer Institute (NCI) CTCAE (Common Terminology Criteria for Adverse Events) v3.0. A Dose Limiting Toxicity (DLT) was defined as follows: • a) Any grade ≧3 reversible non-haematologic treatment-related toxicity OR • b) Any irreversible grade ≧2 non-haematologic treatment-related toxicity OR • c) Any grade ≧4 haematologic treatment-related toxicity lasting longer than 10 days during the 4 weeks of treatment
For the purpose of this study, Moderate Toxicity has been defined according to NCI CTCAE v3.0. Adverse events were treated when they occurred. No investigational or commercial agents or therapies were administered with the intent to treat the subject's malignancy during the period that the subjects were in the study.

Substance: KGVSLSYR-X-RYSLSVGK [CTCE-9908]
- tumor regression ([1]; CTCE-9908 in combination with hepatic artery ligation (HAL), luminescence and necropsy): up to 80%
- tolerability ([1]; rats): well tolerated by all rats
- number of Moderate Toxicities observed during the study ([2]; NCI CTCAE v3.0, whole study): eight
- overall stable disease, number of subjects ([2]; at the end of their last treatment cycle, 1, 2.5 and 5 mg/kg/day doses): five
- Dose Limiting Toxicity (DLT) ([2]; daily dosing for 4 consecutive weeks, up to 5 mg/kg, NCI CTCAE v3.0): no DLT was reported
- tumor markers ([2]; one ovarian cancer subject and one colorectal cancer subject): reduction in tumor markers
- duration of stable disease ([2]; one small bowel subject): up to seven
- Maximum Tolerated Dose (MTD) ([2]; subjects with refractory neoplasms, up to 5 mg/kg): not established
